Experimental data: patent publication US20110105509A1 (Wyeth, LLC, priority 2009, published 2011)

Biological target: T1, CRTH2 (Homo sapiens, UniProt Q9Y5Y4)
T1 construct: expressed in transfected cells; host or cells: CHO cells
T1 sequence (Q9Y5Y4 1-395): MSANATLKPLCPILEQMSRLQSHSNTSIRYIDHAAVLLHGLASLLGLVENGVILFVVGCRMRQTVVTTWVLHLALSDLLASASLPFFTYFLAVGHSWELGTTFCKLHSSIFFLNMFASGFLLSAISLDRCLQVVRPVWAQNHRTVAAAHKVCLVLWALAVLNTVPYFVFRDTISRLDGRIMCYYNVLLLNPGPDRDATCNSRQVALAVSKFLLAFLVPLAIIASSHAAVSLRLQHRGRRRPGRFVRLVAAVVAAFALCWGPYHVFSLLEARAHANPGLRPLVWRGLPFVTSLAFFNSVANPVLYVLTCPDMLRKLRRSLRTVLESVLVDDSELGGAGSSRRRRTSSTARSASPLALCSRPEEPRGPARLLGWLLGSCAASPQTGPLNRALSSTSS
Test: FRET based competitive immunoassay (cAMP) in CRTH2 expressing CHO cells
Assay type: cell-based
Details: CRTH2 expressing CHO cells incubated with forskolin and PGD2; Eu3+ cryptate-labeled anti-cAMP and d2-labeled cAMP
Description: FRET Assay: To evaluate potency compounds were tested in a FRET based competitive immunoassay in which CRTH2 expressing CHO cells were incubated in the presence of forskolin and PGD2 along with Eu3+ cryptate-labeled anti-cAMP and d2-labeled cAMP.

Which IC50 does the source give for Cc1c(-c2cn(CC(C)(C)O)c(=O)c3c2CCCC3)c2cc(F)ccc2n1CC(=O)O [Example 92, 2-(5-fluoro-3-(2-(2-hydroxy-2-methylpropyl)-1-oxo-1,2,5,6,7,8-hexahydro-iso-quinolin-4-yl)-2-methyl-1H-indol-1-yl)acetic acid] here?
Its IC50 is greater than 1000 nM.

For Cc1c(-c2ccc(=O)n(CCc3ccc(F)cc3)n2)c2ccccc2n1CC(=O)O [Example 229, 2-(3-(1-(4-fluorophenethyl)-6-oxo-1,6-dihydropyridazin-3-yl)-2-methyl-1H-indol-1-yl)acetic acid], which IC50 is on record?
Its IC50 is 136 nM.

For COc1ccc2c(c1)c(-c1ccc(=O)n(Cc3ccccc3)n1)c(C)n2CC(=O)O [Example 18, 2-(3-(1-Benzyl-6-oxo-1,6-dihydropyridazin-3-yl)-5-methoxy-2-methyl-1H-indol-1-yl)acetic acid], which IC50 is on record?
The IC50 was 192 nM.

Which IC50 does the source give for Cc1c(-c2cn(CC(F)(F)F)c(=O)c3c2CCCC3)c2cc(F)ccc2n1CC(=O)O [Example 90, 2-(5-fluoro-2-methyl-3-(1-oxo-2-(2,2,2-trifluoroethyl)-1,2,5,6,7,8-hexahydro-isoquinolin-4-yl)-1H-indol-1-yl)acetic acid] here?
Its IC50 is greater than 1000 nM.

How did the IC50 turn out when Cc1c(-c2ccc(=O)n(Cc3cc(F)c(F)cc3F)n2)c2cc(Cl)ccc2n1CC(=O)O [Example 69, 2-(5-chloro-2-methyl-3-(6-oxo-1-(2,4,5-trifluorobenzyl)-1,6-dihydropyridazin-3-yl)-1H-indol-1-yl)acetic acid] was run?
Its IC50 is 7 nM.

Cc1c(Cc2ccc(=O)n(Cc3ccc(C(O)(C(F)(F)F)C(F)(F)F)cc3)n2)c2cc(F)ccc2n1CC(=O)O [Example 239, 2-(5-fluoro-3-((1-(4-(1,1,1,3,3,3-hexafluoro-2-hydroxypropan-2-yl)benzyl)-6-oxo-1,6-dihydropyridazin-3-yl)methyl)-2-methyl-1H-indol-1-yl)acetic acid] was tested. Which IC50 did it give?
The IC50 was 7 nM.

How did the IC50 turn out when Cc1c(-c2nn(Cc3ccc(F)cc3)c(=O)c3ccccc23)c2cc(F)ccc2n1CC(=O)O [Example 111, 2-(5-fluoro-3-(3-(4-fluorobenzyl)-4-oxo-3,4-dihydrophthalazin-1-yl)-2-methyl-1H-indol-1-yl)acetic acid] was run?
The IC50 was greater than 20 nM.

With Cc1c(Cc2ccc(=O)n(Cc3ccccn3)n2)c2cc(F)ccc2n1CC(=O)O [Example 196, 2-(5-fluoro-2-methyl-3-((6-oxo-1-(pyridin-2-ylmethyl)-1,6-dihydropyridazin-3-yl)methyl)-1H-indol-1-yl)acetic acid] as the compound, how does the IC50 read?
Its IC50 is 18 nM.

Which IC50 does the source give for Cc1c(-c2nn(Cc3nc4ccccc4s3)c(=O)c3ccccc23)c2cc(F)ccc2n1CC(=O)O [Example 110, 2-(3-(3-(Benzo[d]thiazol-2-ylmethyl)-4-oxo-3,4-dihydrophthalazin-1-yl)-5-fluoro-2-methyl-1H-indol-1-yl)acetic acid] here?
Its IC50 is 7 nM.

Which IC50 does the source give for Cc1c(Cc2ccc(=O)n(Cc3cccc(F)c3)n2)c2ccccc2n1CC(=O)O [Example 75, 2-(3-((1-(3-fluorobenzyl)-6-oxo-1,6-dihydropyridazin-3-yl)methyl)-2-methyl-1H-indol-1-yl)acetic acid] here?
The IC50 was 101 nM.

Which IC50 does the source give for Cc1c(Cc2ccc(=O)n(Cc3cc(F)ccc3F)n2)c2cc(F)ccc2n1CC(=O)O [Example 336, (3-{[1-(2,5-difluorobenzyl)-6-oxo-1,6-dihydropyridazin-3-yl]methyl}-5-fluoro-2-methyl-1H-indol-1-yl)acetic acid] here?
The IC50 was 5 nM.

For Cc1c(-c2ccc(=O)n(Cc3ccccc3F)c2)c2ccccc2n1CC(=O)O [Example 282, 2-(3-(1-(2-fluorobenzyl)-6-oxo-1,6-dihydropyridin-3-yl)-2-methyl-1H-indol-1-yl)acetic acid], which IC50 is on record?
The IC50 was 11 nM.

For Cc1c(Cc2ccc(=O)n(Cc3ccccc3)c2)c2cc(Cl)ccc2n1CC(=O)O [Example 347, {3-[(1-benzyl-6-oxo-1,6-dihydropyridin-3-yl)methyl]-5-chloro-2-methyl-1H-indol-1-yl}acetic acid], which IC50 is on record?
The IC50 was 11 nM.

How did the IC50 turn out when Cc1c(Cc2ccc(=O)n(Cc3cc(F)ccc3F)c2)c2ccccc2n1CC(=O)O [Example 25, 2-(3-((1-(2,5-Difluorobenzyl)-6-oxo-1,6-dihydropyridin-3-yl)methyl)-2-methyl-1H-indol-1-yl)acetic acid] was run?
Its IC50 is 7 nM.

How did the IC50 turn out when Cc1c(-c2nn(Cc3ccccc3)c(=O)c3ccccc23)c2cc(F)ccc2n1CC(=O)O [Example 328, [3-(3-benzyl-4-oxo-3,4-dihydrophthalazin-1-yl)-5-fluoro-2-methyl-1H-indol-1-yl]-acetic acid] was run?
The IC50 was 12 nM.

Cc1c(-c2nn(CCOc3ccccc3)c(=O)c3ccccc23)c2cc(Cl)ccc2n1CC(=O)O [Example 221, 2-(5-chloro-2-methyl-3-(4-oxo-3-(2-phenoxyethyl)-3,4-dihydrophthalazin-1-yl)-1H-indol-1-yl)acetic acid] was tested. Which IC50 did it give?
Its IC50 is 6 nM.

Cc1c(-c2nn(CCOc3ccc(Cl)cc3)c(=O)c3ccccc23)c2cc(F)ccc2n1CC(=O)O [Example 210, 2-(3-(3-(2-(4-chlorophenoxy)ethyl)-4-oxo-3,4-dihydrophthalazin-1-yl)-5-fluoro-2-methyl-1H-indol-1-yl)acetic acid] was tested. Which IC50 did it give?
Its IC50 is 2 nM.

With Cc1c(-c2nn(Cc3ccccc3)c(=O)c3ccccc23)c2cc(F)cc(S(C)(=O)=O)c2n1CC(=O)O [Example 237, 2-(3-(3-benzyl-4-oxo-3,4-dihydrophthalazin-1-yl)-5-fluoro-2-methyl-7-(methyl-sulfonyl)-1H-indol-1-yl)acetic acid] as the compound, how does the IC50 read?
Its IC50 is greater than 1000 nM.

With Cc1c(CC2=NN(Cc3ccc(F)cc3F)C(=O)CC2)c2cc(F)ccc2n1CC(=O)O [Example 56, 2-(3-((1-(2,4-Difluorobenzyl)-6-oxo-1,4,5,6-tetrahydropyridazin-3-yl)methyl)-5-fluoro-2-methyl-1H-indol-1-yl)acetic acid] as the compound, how does the IC50 read?
Its IC50 is 5 nM.

For Cc1c(-c2nn(Cc3cc(F)ccc3F)c(=O)c3ccccc23)c2cc(Cl)ccc2n1CC(=O)O [Example 59, 2-(5-Chloro-3-(3-(2,5-difluorobenzyl)-4-oxo-3,4-dihydrophthalazin-1-yl)-2-methyl-1H-indol-1-yl)acetic acid], which IC50 is on record?
Its IC50 is 12 nM.

Cc1c(Cc2ccc(=O)n(Cc3ccncc3)n2)c2cc(F)ccc2n1CC(=O)O [Example 194, 2-(5-fluoro-2-methyl-3-((6-oxo-1-(pyridin-4-ylmethyl)-1,6-dihydro-pyridazin-3-yl)methyl)-1H-indol-1-yl)acetic acid] was tested. Which IC50 did it give?
Its IC50 is 98 nM.

For Cc1c(-c2nn(Cc3ccc(C(F)(F)F)cc3)c(=O)c3ccccc23)c2cc(Cl)ccc2n1CC(=O)O [Example 198, 2-(5-Chloro-2-methyl-3-(4-oxo-3-(4-(trifluoromethyl)benzyl)-3,4-dihydrophthalazin-1-yl)-1H-indol-1-yl)acetic acid], which IC50 is on record?
Its IC50 is 46 nM.

With Cc1c(CC2=NN(CC(F)(F)F)C(=O)CC2)c2cc(F)ccc2n1CC(=O)O [Example 57, 2-(5-Fluoro-2-methyl-3-((6-oxo-1-(2,2,2-trifluoroethyl)-1,4,5,6-tetrahydropyridazin-3-yl)-methyl)-1H-indol-1-yl)acetic acid] as the compound, how does the IC50 read?
The IC50 was 5 nM.

Which IC50 does the source give for Cc1c(-c2ccc(=O)n(Cc3cccc(F)c3F)c2)c2cc(F)ccc2n1CC(N)=O [Example 301, 2-(3-(1-(2,3-difluorobenzyl)-6-oxo-1,6-dihydropyridin-3-yl)-5-fluoro-2-methyl-1H-indol-1-yl)acetamide] here?
The IC50 was greater than 2000 nM.

With Cc1c(-c2ccc(=O)n(C(C)C)n2)c2ccccc2n1CC(=O)O [Example 181, 2-(3-(1-isopropyl-6-oxo-1,6-dihydropyridazin-3-yl)-2-methyl-1H-indol-1-yl)-acetic acid] as the compound, how does the IC50 read?
Its IC50 is 920 nM.

With Cc1c(-c2nn(Cc3ccccc3)c(=O)c3ccccc23)c2cc(Cl)cc(F)c2n1CC(=O)O [Example 11, 2-(3-(3-Benzyl-4-oxo-3,4-dihydrophthalazin-1-yl)-5-chloro-7-fluoro-2-methyl-1H-indol-1-yl)acetic acid] as the compound, how does the IC50 read?
The IC50 was 39 nM.

Cc1c(-c2ccc(=O)n(Cc3nnc[nH]3)n2)c2cc(F)ccc2n1CC(=O)O [Example 260a, 2-(3-(1-((4H-1,2,4-triazol-3-yl)methyl)-6-oxo-1,6-dihydropyridazin-3-yl)-5-fluoro-2-methyl-1H-indol-1-yl)acetic acid] was tested. Which IC50 did it give?
Its IC50 is 3380 nM.

Which IC50 does the source give for Cc1c(Cc2ccc(=O)n(Cc3ccccc3F)c2)c2ccccc2n1CC(=O)O [Example 31, 2-(3-((1-(2-Fluorobenzyl)-6-oxo-1,6-dihydropyridin-3-yl)methyl)-2-methyl-1H-indol-1-yl)acetic acid] here?
The IC50 was 41 nM.

Cc1c(-c2nn(CCOc3ccccc3)c(=O)c3ccccc23)c2cc(Cl)ccc2n1CC(=O)NS(C)(=O)=O [Example 322, 2-(5-Chloro-2-methyl-3-(4-oxo-3-(2-phenoxyethyl)-3,4-dihydrophthalazin-1-yl)-1H-indol-1-yl)-N-(methylsulfonyl)acetamide] was tested. Which IC50 did it give?
Its IC50 is greater than 1000 nM.

With Cc1c(-c2nn(Cc3ccccc3)c(=O)c3ccccc23)c2ccccc2n1CC(N)=O [Example 47, 2-(3-(3-Benzyl-4-oxo-3,4-dihydrophthalazin-1-yl)-2-methyl-1H-indol-1-yl)-acetamide] as the compound, how does the IC50 read?
The IC50 was greater than 2000 nM.

Which IC50 does the source give for Cc1c(-c2nn(C)c(=O)c3ccccc23)c2ccccc2n1CC(=O)O [Example 174, 2-(2-methyl-3-(3-methyl-4-oxo-3,4-dihydrophthalazin-1-yl)-1H-indol-1-yl)-acetic acid] here?
Its IC50 is 980 nM.

How did the IC50 turn out when Cc1c(-c2nn(Cc3cccc(C(F)(F)F)c3)c(=O)c3ccccc23)c2cc(F)ccc2n1CC(=O)O [Example 203, 2-(5-fluoro-2-methyl-3-(4-oxo-3-(3-(trifluoromethyl)benzyl)-3,4-dihydro-phthalazin-1-yl)-1H-indol-1-yl)acetic acid] was run?
The IC50 was 10 nM.
